Patent US9469650B2, “Melampomagnolide B derivatives” (BOARD OF TRUSTEES OF THE UNIVERSITY OF ARKANSAS, priority 2013, dated 2016)

Assays:
HCT-116 = assay: panel of 60 human tumor cell lines, growth inhibition (Colon Cancer); settings: HCT-116
NCI-H322M = assay: panel of 60 human tumor cell lines, growth inhibition (Non-Small Cell Lung Cancer)
T-47D = assay: panel of 60 human tumor cell lines, growth inhibition (Breast Cancer); settings: T-47D
SF-268 = assay: panel of 60 human tumor cell lines, growth inhibition (CNS Cancer); settings: SF-268
BT-549 = assay: panel of 60 human tumor cell lines, growth inhibition (Breast Cancer); settings: BT-549
HCT-15 = assay: panel of 60 human tumor cell lines, growth inhibition (Colon Cancer); settings: HCT-15
A549/ATCC = assay: panel of 60 human tumor cell lines, growth inhibition (Non-Small Cell Lung Cancer); settings: A549/ATCC
OVCAR-5 = assay: panel of 60 human tumor cell lines, growth inhibition (Ovarian Cancer); settings: OVCAR-5
K-562 = assay: panel of 60 human tumor cell lines, growth inhibition (Leukemia); settings: K-562
TK-10 = assay: panel of 60 human tumor cell lines, growth inhibition (Renal Cancer); settings: TK-10
SF-295 = assay: panel of 60 human tumor cell lines, growth inhibition (CNS Cancer); settings: SF-295
SW-620 = assay: panel of 60 human tumor cell lines, growth inhibition (Colon Cancer); settings: SW-620
SNB-75 = assay: panel of 60 human tumor cell lines, growth inhibition (CNS Cancer); settings: SNB-75
UACC-257 = assay: panel of 60 human tumor cell lines, growth inhibition (Melanoma); settings: UACC-257
HS 578T = assay: panel of 60 human tumor cell lines, growth inhibition (Breast Cancer); settings: HS 578T
NCI-H522 = assay: panel of 60 human tumor cell lines, growth inhibition (Non-Small Cell Lung Cancer); settings: NCI-H522
OVCAR-3 = assay: panel of 60 human tumor cell lines, growth inhibition (Ovarian Cancer); settings: OVCAR-3
HT29 = assay: panel of 60 human tumor cell lines, growth inhibition (Colon Cancer); settings: HT29

For `C=C1C(=O)O[C@H]2[C@H]1CC/C(COC(=O)N1CCC(F)(F)CC1)=C\CC[C@@]1(C)O[C@@H]21` [JVM 2-66], the GI50 (HCT-116) was 1.41 µM, the TGI (HCT-116) was 3.30E−6 and the “Percent Growth” value (HCT-116; Log10 Concentration −4.0) was −100%. The “Percent Growth” value (HCT-116; Log10 Concentration −5.0) was −65%, the “Percent Growth” value (HCT-116; Log10 Concentration −6.0) was 70% and the “Percent Growth” value (HCT-116; Log10 Concentration −7.0) was 93%. The “Percent Growth” value (HCT-116; Log10 Concentration −8.0) was 99%, the GI50 (NCI-H322M) was 13 µM and the TGI (NCI-H322M) was 2.66E−5. The “Percent Growth” value (NCI-H322M; Log10 Concentration −4.0) was −92%, the “Percent Growth” value (NCI-H322M; Log10 Concentration −5.0) was 68% and the “Percent Growth” value (NCI-H322M; Log10 Concentration −6.0) was 102%. For the same compound, the “Percent Growth” value (NCI-H322M; Log10 Concentration −7.0) was 99%, the “Percent Growth” value (NCI-H322M; Log10 Concentration −8.0) was 96% and the GI50 (T-47D) was 3.07 µM. For the same compound, the TGI (T-47D) was 1.64E−5, the “Percent Growth” value (T-47D; Log10 Concentration −4.0) was −45% and the “Percent Growth” value (T-47D; Log10 Concentration −5.0) was 13%. The “Percent Growth” value (T-47D; Log10 Concentration −6.0) was 86%, the “Percent Growth” value (T-47D; Log10 Concentration −7.0) was 84% and the “Percent Growth” value (T-47D; Log10 Concentration −8.0) was 93%. For the same compound, the GI50 (SF-268) was 10.7 µM, the TGI (SF-268) was 2.47E−5 and the “Percent Growth” value (SF-268; Log10 Concentration −4.0) was −84%. For the same compound, the “Percent Growth” value (SF-268; Log10 Concentration −5.0) was 54%, the “Percent Growth” value (SF-268; Log10 Concentration −6.0) was 95% and the “Percent Growth” value (SF-268; Log10 Concentration −7.0) was 93%. The “Percent Growth” value (SF-268; Log10 Concentration −8.0) was 95%, the GI50 (BT-549) was 2.69 µM and the TGI (BT-549) was 8.54E−6. The “Percent Growth” value (BT-549; Log10 Concentration −4.0) was −99%, the “Percent Growth” value (BT-549; Log10 Concentration −5.0) was −7% and the “Percent Growth” value (BT-549; Log10 Concentration −6.0) was 93%. The “Percent Growth” value (BT-549; Log10 Concentration −7.0) was 98%, the “Percent Growth” value (BT-549; Log10 Concentration −8.0) was 100% and the GI50 (HCT-15) was 1.47 µM. For the same compound, the TGI (HCT-15) was 3.84E−6, the “Percent Growth” value (HCT-15; Log10 Concentration −4.0) was −86% and the “Percent Growth” value (HCT-15; Log10 Concentration −5.0) was −50%. For the same compound, the “Percent Growth” value (HCT-15; Log10 Concentration −6.0) was 70%, the “Percent Growth” value (HCT-15; Log10 Concentration −7.0) was 94% and the “Percent Growth” value (HCT-15; Log10 Concentration −8.0) was 100%. The GI50 (A549/ATCC) was 11.3 µM, the TGI (A549/ATCC) was 2.74E−5 and the “Percent Growth” value (A549/ATCC; Log10 Concentration −4.0) was −73%. For the same compound, the “Percent Growth” value (A549/ATCC; Log10 Concentration −5.0) was 57%, the “Percent Growth” value (A549/ATCC; Log10 Concentration −6.0) was 93% and the “Percent Growth” value (A549/ATCC; Log10 Concentration −7.0) was 97%. For the same compound, the “Percent Growth” value (A549/ATCC; Log10 Concentration −8.0) was 98%, the GI50 (OVCAR-5) was 4.25 µM and the TGI (OVCAR-5) was 1.60E−5. The “Percent Growth” value (OVCAR-5; Log10 Concentration −4.0) was −83%, the “Percent Growth” value (OVCAR-5; Log10 Concentration −5.0) was 21% and the “Percent Growth” value (OVCAR-5; Log10 Concentration −6.0) was 99%. The “Percent Growth” value (OVCAR-5; Log10 Concentration −7.0) was 90%, the “Percent Growth” value (OVCAR-5; Log10 Concentration −8.0) was 96% and the GI50 (K-562) was 3.45 µM. For the same compound, the TGI (K-562) was 3.61E−5, the “Percent Growth” value (K-562; Log10 Concentration −4.0) was −10% and the “Percent Growth” value (K-562; Log10 Concentration −5.0) was 13%. The “Percent Growth” value (K-562; Log10 Concentration −6.0) was 93%, the “Percent Growth” value (K-562; Log10 Concentration −7.0) was 95% and the “Percent Growth” value (K-562; Log10 Concentration −8.0) was 104%. The GI50 (TK-10) was 2.6 µM, the TGI (TK-10) was 6.55E−6 and the “Percent Growth” value (TK-10; Log10 Concentration −4.0) was −96%. For the same compound, the “Percent Growth” value (TK-10; Log10 Concentration −5.0) was −23%, the “Percent Growth” value (TK-10; Log10 Concentration −6.0) was 102% and the “Percent Growth” value (TK-10; Log10 Concentration −7.0) was 95%. The “Percent Growth” value (TK-10; Log10 Concentration −8.0) was 94%, the GI50 (SF-295) was 12 µM and the TGI (SF-295) was 2.49E−5. The “Percent Growth” value (SF-295; Log10 Concentration −4.0) was −96%, the “Percent Growth” value (SF-295; Log10 Concentration −5.0) was 63% and the “Percent Growth” value (SF-295; Log10 Concentration −6.0) was 91%. For the same compound, the “Percent Growth” value (SF-295; Log10 Concentration −7.0) was 91%, the “Percent Growth” value (SF-295; Log10 Concentration −8.0) was 95% and the GI50 (SW-620) was 1.46 µM. The TGI (SW-620) was 4.37E−6, the “Percent Growth” value (SW-620; Log10 Concentration −4.0) was −86% and the “Percent Growth” value (SW-620; Log10 Concentration −5.0) was −38%. For the same compound, the “Percent Growth” value (SW-620; Log10 Concentration −6.0) was 67%, the “Percent Growth” value (SW-620; Log10 Concentration −7.0) was 97% and the “Percent Growth” value (SW-620; Log10 Concentration −8.0) was 99%. For the same compound, the GI50 (SNB-75) was 6.13 µM, the TGI (SNB-75) was 2.03E−5 and the “Percent Growth” value (SNB-75; Log10 Concentration −4.0) was −95%. For the same compound, the “Percent Growth” value (SNB-75; Log10 Concentration −5.0) was 42%, the “Percent Growth” value (SNB-75; Log10 Concentration −6.0) was 79% and the “Percent Growth” value (SNB-75; Log10 Concentration −7.0) was 75%. For the same compound, the “Percent Growth” value (SNB-75; Log10 Concentration −8.0) was 87%, the GI50 (UACC-257) was 2.34 µM and the TGI (UACC-257) was 1.02E−5. For the same compound, the “Percent Growth” value (UACC-257; Log10 Concentration −4.0) was −90%, the “Percent Growth” value (UACC-257; Log10 Concentration −5.0) was 1% and the “Percent Growth” value (UACC-257; Log10 Concentration −6.0) was 79%. The “Percent Growth” value (UACC-257; Log10 Concentration −7.0) was 96%, the “Percent Growth” value (UACC-257; Log10 Concentration −8.0) was 94% and the GI50 (HS 578T) was 13.5 µM. The TGI (HS 578T) was 7.06E−5, the “Percent Growth” value (HS 578T; Log10 Concentration −4.0) was −10% and the “Percent Growth” value (HS 578T; Log10 Concentration −5.0) was 59%. The “Percent Growth” value (HS 578T; Log10 Concentration −6.0) was 89%, the “Percent Growth” value (HS 578T; Log10 Concentration −7.0) was 93% and the “Percent Growth” value (HS 578T; Log10 Concentration −8.0) was 93%. For the same compound, the GI50 (NCI-H522) was 1.25 µM, the TGI (NCI-H522) was 2.75E−6 and the “Percent Growth” value (NCI-H522; Log10 Concentration −4.0) was −80%. The “Percent Growth” value (NCI-H522; Log10 Concentration −5.0) was −81%, the “Percent Growth” value (NCI-H522; Log10 Concentration −6.0) was 64% and the “Percent Growth” value (NCI-H522; Log10 Concentration −7.0) was 92%. For the same compound, the “Percent Growth” value (NCI-H522; Log10 Concentration −8.0) was 91%, the GI50 (OVCAR-3) was 1.69 µM and the TGI (OVCAR-3) was 4.03E−6. The “Percent Growth” value (OVCAR-3; Log10 Concentration −4.0) was −99%, the “Percent Growth” value (OVCAR-3; Log10 Concentration −5.0) was −52% and the “Percent Growth” value (OVCAR-3; Log10 Concentration −6.0) was 80%. For the same compound, the “Percent Growth” value (OVCAR-3; Log10 Concentration −7.0) was 95%, the “Percent Growth” value (OVCAR-3; Log10 Concentration −8.0) was 101% and the GI50 (HT29) was 3.3 µM. The TGI (HT29) was 1.05E−5, the “Percent Growth” value (HT29; Log10 Concentration −4.0) was −84% and the “Percent Growth” value (HT29; Log10 Concentration −5.0) was 2%. The “Percent Growth” value (HT29; Log10 Concentration −6.0) was 102%, the “Percent Growth” value (HT29; Log10 Concentration −7.0) was 101% and the “Percent Growth” value (HT29; Log10 Concentration −8.0) was 97%.
